Measurements as given in PubChem BioAssay AID1963845 (Molecular Pharmacology Branch, DTP, NCI, 2024).

Test system: 429239-143-T-J1-PDC complex spheroid viability
Test: Anticancer human tumor 429239-143-T-J1-PDC patient-derived small cell lung carcinoma cell line growth inhibition [POLQ]
Details: for IC50: curve of first compound; for viability, T/C: stronger effect = lower value; active = viability on the fitted dose curve at most 10% of control; inactive = the rest
In short: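 PDC + HUVEC + MSC complex spheroids; POLQ inhibitors ± partner drugs; top conc. at/near clinical Cmax, else 10 microM (SN-38 1 microM), half-log dilutions; 37 degrees C, 5% CO2.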

[1] = second compound 0.0316 µM, first compound 0.0316 µM
[2] = second compound 0.0316 µM, first compound 0.1 µM
[3] = second compound 0.0316 µM, first compound 0.316 µM
[4] = second compound 0.0316 µM, first compound 1 µM
[5] = second compound 0.0316 µM, first compound 3.16 µM
[6] = second compound 0.0316 µM, first compound 10 µM
[7] = second compound 0.1 µM, first compound 0.0316 µM
[8] = second compound 0.1 µM, first compound 0.1 µM
[9] = second compound 0.1 µM, first compound 0.316 µM
[10] = second compound 0.1 µM, first compound 1 µM
[11] = second compound 0.1 µM, first compound 3.16 µM
[12] = second compound 0.1 µM, first compound 10 µM
[13] = second compound 0.316 µM, first compound 0.0316 µM
[14] = second compound 0.316 µM, first compound 0.1 µM
[15] = second compound 0.316 µM, first compound 0.316 µM
[16] = second compound 0.316 µM, first compound 1 µM
[17] = second compound 0.316 µM, first compound 3.16 µM
[18] = second compound 0.316 µM, first compound 10 µM
[19] = second compound 1 µM, first compound 0.0316 µM
[20] = second compound 1 µM, first compound 0.1 µM
[21] = second compound 1 µM, first compound 0.316 µM
[22] = second compound 1 µM, first compound 1 µM
[23] = second compound 1 µM, first compound 3.16 µM
[24] = second compound 1 µM, first compound 10 µM
[25] = second compound 3.16 µM, first compound 0.0316 µM
[26] = second compound 3.16 µM, first compound 0.1 µM
[27] = second compound 3.16 µM, first compound 0.316 µM
[28] = second compound 3.16 µM, first compound 1 µM
[29] = second compound 3.16 µM, first compound 3.16 µM
[30] = second compound 3.16 µM, first compound 10 µM
[31] = second compound 10 µM, first compound 0.0316 µM
[32] = second compound 10 µM, first compound 0.1 µM
[33] = second compound 10 µM, first compound 0.316 µM
[34] = second compound 10 µM, first compound 1 µM
[35] = second compound 10 µM, first compound 3.16 µM
[36] = second compound 10 µM, first compound 10 µM
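Note: luminescence signal used as surrogate measure of viable cells; spheroids exposed to compounds for seven days before readout.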
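Throughout, for viability, T/C: 100% = DMSO vehicle control viability as luminescence relative to vehicle.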

COc1cc(C2c3cc4c(cc3C(OC3OC5COC(C)OC5C(O)C3O)C3COC(=O)C23)OCO4)cc(OC)c1O (stereo unspecified) + COC1C(OC(N)=O)C(O)C(Oc2ccc3c(O)c(NC(=O)c4ccc(O)c(CC=C(C)C)c4)c(=O)oc3c2C)OC1(C)C
0.249 µM: IC50 (second compound 0.1 µM)
0.349 µM: IC50 (second compound 3.16 µM)
0.274 µM: IC50 (second compound 10 µM)
0.302 µM: IC50 (second compound 0.0316 µM)
0.325 µM: IC50 (second compound 1 µM)
inactive: viability, T/C [1] 101% | viability, T/C [2] 81.2% | viability, T/C [3] 53% | viability, T/C [4] 15.8% | viability, T/C [5] 18.2% | viability, T/C [6] 16.6% | viability, T/C [7] 106% | viability, T/C [8] 72% | viability, T/C [9] 47.9% | viability, T/C [10] 22% | viability, T/C [11] 18.2% | viability, T/C [12] 18.1% | viability, T/C [13] 88.1% | viability, T/C [14] 85.3% | viability, T/C [15] 59.4% | viability, T/C [16] 20.4% | viability, T/C [17] 16.6% | viability, T/C [18] 16.1% | viability, T/C [19] 90.8% | viability, T/C [20] 75.5% | viability, T/C [21] 54% | viability, T/C [22] 18.6% | viability, T/C [23] 14% | viability, T/C [24] 17% | viability, T/C [25] 88.4% | viability, T/C [26] 88.9% | viability, T/C [27] 52.4% | viability, T/C [28] 20.3% | viability, T/C [29] 17% | viability, T/C [30] 13.7% | viability, T/C [31] 97.4% | viability, T/C [32] 79.1% | viability, T/C [33] 47.7% | viability, T/C [34] 18.9% | viability, T/C [35] 23% | viability, T/C [36] 14.2%
0.417 µM: IC50 (second compound 0.316 µM)

COc1ccc([C@@H](O)c2cc(-c3ncnc4cc(N5CCOCC5)ccc34)c(F)cc2Cl)nn1 + Nc1ccc(C#CCN(C(=O)Cc2ncc(C(F)(F)F)cc2C(F)(F)F)c2ccc(F)cc2)nn1
9.66 µM: IC50 (second compound 0.1 µM)
9.31 µM: IC50 (second compound 0.0316 µM)
8.87 µM: IC50 (second compound 0.316 µM)
> 10 µM: IC50 (second compound 1 µM)
inactive: viability, T/C [1] 92% | viability, T/C [2] 103% | viability, T/C [3] 102% | viability, T/C [4] 98.8% | viability, T/C [5] 90.1% | viability, T/C [6] 47.2% | viability, T/C [7] 97.8% | viability, T/C [8] 105% | viability, T/C [9] 101% | viability, T/C [10] 94.3% | viability, T/C [11] 86.1% | viability, T/C [12] 48.4% | viability, T/C [13] 107% | viability, T/C [14] 101% | viability, T/C [15] 102% | viability, T/C [16] 112% | viability, T/C [17] 88.8% | viability, T/C [18] 45.5% | viability, T/C [19] 97.8% | viability, T/C [20] 86.6% | viability, T/C [21] 97% | viability, T/C [22] 100% | viability, T/C [23] 84% | viability, T/C [24] 55.8% | viability, T/C [25] 106% | viability, T/C [26] 102% | viability, T/C [27] 96.8% | viability, T/C [28] 96.6% | viability, T/C [29] 78.7% | viability, T/C [30] 43.5% | viability, T/C [31] 95.2% | viability, T/C [32] 94.4% | viability, T/C [33] 108% | viability, T/C [34] 97% | viability, T/C [35] 72.1% | viability, T/C [36] 41.6%
8.13 µM: IC50 (second compound 3.16 µM)
7.29 µM: IC50 (second compound 10 µM)

CC(C)n1c(=O)n(C)c2cnc3cc(F)c(-c4ccc(OCCCN5CCCCC5)nc4)cc3c21 + COC1C(OC(N)=O)C(O)C(Oc2ccc3c(O)c(NC(=O)c4ccc(O)c(CC=C(C)C)c4)c(=O)oc3c2C)OC1(C)C
inactive: viability, T/C [1] 107% | viability, T/C [2] 86.6% | viability, T/C [3] 99% | viability, T/C [4] 109% | viability, T/C [5] 104% | viability, T/C [6] 85.4% | viability, T/C [7] 102% | viability, T/C [8] 93.7% | viability, T/C [9] 82.7% | viability, T/C [10] 96.8% | viability, T/C [11] 82.9% | viability, T/C [12] 84.7% | viability, T/C [13] 109% | viability, T/C [14] 91% | viability, T/C [15] 82.3% | viability, T/C [16] 103% | viability, T/C [17] 90.6% | viability, T/C [18] 72.5% | viability, T/C [19] 93.2% | viability, T/C [20] 104% | viability, T/C [21] 91.5% | viability, T/C [22] 96.9% | viability, T/C [23] 81.5% | viability, T/C [24] 70.2% | viability, T/C [25] 101% | viability, T/C [26] 84.8% | viability, T/C [27] 90.9% | viability, T/C [28] 100% | viability, T/C [29] 87.6% | viability, T/C [30] 83.6% | viability, T/C [31] 86.9% | viability, T/C [32] 85.8% | viability, T/C [33] 88.7% | viability, T/C [34] 102% | viability, T/C [35] 74% | viability, T/C [36] 88.4%
> 10 µM: IC50 (second compound 0.0316 µM) | IC50 (second compound 0.1 µM) | IC50 (second compound 0.316 µM) | IC50 (second compound 1 µM) | IC50 (second compound 3.16 µM) | IC50 (second compound 10 µM)
